Reference: patent publication US8211463B2, “Use of glycolipids as adjuvants” (Helmholtz-Zentrum Fuer Infektionsforschung GmbH, priority 2006, dated 2012)
Entries after “also recorded” stand apart in the source; their conditions may differ.

What was measured:
[1] = Tolerability of co-administered glycolipids: body weight and behaviour tested daily; assay type: in vivo
Experimental: The body weight and the behaviour of the animals were tested daily. The Balb/c mice were immunized by the mucosal (i.n.) or parenteral (s.c.) route with β-Gal alone or together with glycolipids 1, 5 and 6 three times at 2-wk intervals (day 1, 14 and 28). 10 days after the final immunization (day 38), the immunized mice were sacrificed.
Experimental protocol: six-eight weeks-old female BALB/c (H-2d) mice were purchased from Harlan Winkelmann GmbH (Borchen, Germany) and treated in accordance with local and European Community guidelines. Groups of 5 mice each were immunized on day 01, 14 and 28 with 30 μg of β-Gal (Boehringer, Mannheim, Germany), alone or with 10 μg of glycolipids 1, 5, or 6, respectively, see FIG. 2. For intranasal (i.n.) immunization, 10 μl were applied to each naris, whereas for the s.c. injection β-Gal with or without glycolipids 1, 5 or 6, respectively, was resuspended in a volume of 50 μl PBS per animal. Serum samples were collected at day 38 after immunization and stored at −20° C. prior to determination of β-Gal-specific antibodies. 96-well Nunc-Immuno MaxiSorp assay plates (Nunc, Roskilde, Denmark) were coated with 100 μl of β-Gal (Boehringer, Mannheim, Germany) at 5 μg/ml in 0.05 M carbonate buffer (pH 8.2) per well. Serial two-fold dilutions of sera or lavages in PBS with 1% BSA and 0.05% Tween 20 were added (100 μl/well), and plates incubated for 16 h at 37° C. After washing, biotinylated γ-chain-specific goat anti-mouse IgG (Sigma Chemie, Deisenhofen, Germany) was added, and plates were incubated for an additional 1 h at 37° C. After four washes, 100 μl of peroxidase-conjugated streptavidin (Pharmingen) was added to cells and plates incubated at 37° C. for 30 min. After four washes, reactions were developed with ABTS in 0.1 M citrate-phosphate buffer (pH 4.35) containing 0.01% H2O2.

[2] = tested on: β-Gal-specific mucosal S-IgA; test: β-Gal-specific secretory IgA in bronchial alveolar and vaginal lavages after i.n. immunisation; assay type: in vivo, Balb/c mice; conditions: for expression of β-Gal-specific S-IgA titers (lavage not named, FIG. 6): 20 up to 30 μg glycolipid, probably vaginal lavage
Experimental: Co-administration of β-Gal with 10 μg glycolipids 1, 5 and 6 induced β-Gal-specific mucosal S-IgA responses in Balb/c mice. Balb/c mice were immunized by the i.n. or s.c. route with β-Gal alone or together with glycolipids 1, 5 and 6 three times at 2-wk intervals. 10 days after the final immunization, the immunized mice were sacrificed. β-Gal-specific S-IgA titers were determined in vaginal lavage (VL) and Bronchial alveolar lavage (BAL) of mice immunized with β-Gal co-administered with glycolipids 1, 5 and 6 by the intranasal route. […] Bars represent mean Ab titer or amount±SE in each group. Each group consists of five mice. Data are representative of three separate experiments.
Co-administration of β-Gal with 20 up to 30 μg glycolipids 5 and 6 induced β-Gal-specific mucosal S-IgA responses in Balb/c mice. Balb/c mice were immunized by the i.n. or s.c. route with β-Gal alone or together with glycolipids 5 and 6 three times at 2-wk intervals. 10 days after the final immunization, the immunized mice were sacrificed. β-Gal-specific S-IgA titers were determined in vaginal lavage (VL) and Bronchial alveolar lavage (BAL) of mice immunized with β-Gal co-administered with glycolipids 5 and 6 by the intranasal route.
Experimental protocol: at day 38, mice were sacrificed and the final sampling was performed. Vaginal and lung lavages were obtained by flushing the organs with 1 ml of PBS supplemented with 50 mM EDTA, 0.1% BSA, and 10 mM PMSF. Lavages were then centrifuged to remove debris (10 min at 3000×g), and supernatant fluids were stored at −20° C. To determine the concentration of total IgA present in the lung and vaginal lavages, serial dilutions of the corresponding samples were incubated in microtiter plates that were previously coated with goat anti-mouse IgA (Sigma Chemie), as capture antibodies (100 μl/well). Serial dilutions of purified mouse IgA (Sigma Chemie) were used to generate a standard curve.

[3] = 10 μg glycolipid + 30 μg β-Gal, day 38
[4] = co-administered with 30 μg β-Gal, i.n. and s.c., day 1, 14 and 28
[5] = 20 up to 30 μg glycolipid + 30 μg β-Gal, day 38

| Structure (SMILES) | toxic side effects (body weight and behaviour) ([1]; mouse, in vivo, sc) | β-Galactosidase-specific sIgA titer in bronchial alveolar lavage (BAL) [2, 3] | toxic side effects (body weight and behaviour) [1, 4] | β-Galactosidase-specific sIgA titer in bronchial alveolar lavage (BAL) [2, 5] | expression of β-Gal-specific S-IgA titers (lavage not named, FIG. 6) [2] | β-Galactosidase-specific sIgA in vaginal lavages [2, 3] |
| --- | --- | --- | --- | --- | --- | --- |
| CCCCCCCC/C=C\CCCCCCCCOCC(COCCCCCCCC/C=C\CCCCCCCC)O[C@@H]1O[C@H](CO)[C@@H](O[C@H]2O[C@H](CO)[C@@H](O)[C@H](O)[C@H]2O)[C@H](O)[C@H]1O (relative stereo) [glycolipid 1, 1,3-Di-O[cis-9-octadecenyl]-2-O-[4′-O-(α-D-glycopyranosyl)-β-D-glycopyranosyl]-sn-glycerol] | no toxic side effects; also recorded: no toxic side effects or changes in their behaviour | below the detection level |  |  |  |  |
| CCCCCCCCCCCCCCOCC(COCCCCCCCCCCCCCC)O[C@@H]1O[C@H](CO[C@H]2O[C@H](CO)[C@H](O)[C@H](O)[C@H]2O)[C@@H](O)[C@H](O)[C@H]1O [glycolipid 6, 1,3-di-O-tetradecyl-2-O-[6′-O-(α-D-galactopyranosyl)-β-D-glucopyranosyl]-sn-glycerol] |  | below the detection level | no toxic side effects; also recorded: no toxic side effects or changes in their behaviour | comparable sIgA titers in BAL; also recorded: significant increase | comparable with titer of the control groups |  |
| CCCCCCCCCCCCCCOCC(COCCCCCCCCCCCCCC)O[C@@H]1O[C@H](CO)[C@@H](O[C@H]2O[C@H](CO)[C@@H](O)[C@H](O)[C@H]2O)[C@H](O)[C@H]1O [glycolipid 5, 1,3-Di-O-tetradecyl-2-O-[4′-O-(α-D-glucopyranosyl)-β-D-glucopyranosyl]-sn-glycerol] |  | > 1/130 and significant increase | no toxic side effects; also recorded: no toxic side effects or changes in their behaviour | > 1/170 and significant increase | comparable with titer of the control groups | enhanced |
